Values of other authors as cited in paper PMC9042886 (RSC Advances, 2021).

Assays:
HDAC6 = settings: read-out: IC50 for HDAC6
HDAC8 = settings: read-out: IC50 for HDAC8

- IC50 (HDAC6): 306 ± 69 nM
- IC50 (HDAC8): 3100 ± 1650 nM
SMILES: Oc1ccc[nH]c1=S [3-HPT, 3-hydroxypyridin-2-thione]
